What all share (test): inhibition of tumour cell growth, NCI panel, 48 h
The subject of experiment [1] is A549.
Experiment [2] has as its system ACHN.
In experiment [3] the test system is BT-549.
In experiment [4] the test system is CAKI-1.
Experiment [5] relates to HL-60.
The subject of experiment [6] is Hs-578T.
The test system of experiment [7] is M14.
In experiment [8] the test system is MCF7.
Experiment [9] relates to MDA-MB-231.
Experiment [10] concerns NCI-H23.
Experiment [11] has as its system NCI/ADR-RES.
Experiment [12] deals with RXF 393.
For experiment [13], the system named is SF-268.
In experiment [14] the test system is SF-539.
For experiment [15], the system named is SK-MEL-28.
The subject of experiment [16] is SN12C.
The test system of experiment [17] is SNB-75.
Experiment [18] deals with SW-620.
In experiment [19] the test system is U-251.
In experiment [20] the test system is UACC-257.

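Method: 48-hour compound exposure of cells in 96-well plates, five concentrations, linear interpolation of endpoints. At the GI50, growth is halved.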 Calls of active or inactive are those of the source. No stated cut-off is given here; in the data, active = GI50 up to about 1.1 µM and inactive = higher. Where only a bound is given, the exact number is not on record here.

As to `Cc1ncc(CO)c(/C=N/CCCCCC/N=C/c2c(CO)cnc(C)c2[O-])c1[O-].[Mg+2]`, the GI50 in experiment [1], in experiment [2], in [3], in [4], in experiment [5] and in experiment [6] was > 100 µM (inactive) each time. Also, the GI50 in experiment [7] was > 100 µM (inactive); in experiment [8], > 60.1 µM (inactive); in experiment [9], > 100 µM (inactive); in experiment [10], > 100 µM (inactive); in [11], > 100 µM (inactive); in experiment [12], > 100 µM (inactive). The GI50 in experiment [13] is > 100 µM (inactive); in experiment [14], > 100 µM (inactive); in experiment [15], > 100 µM (inactive); in experiment [16], > 100 µM (inactive); in experiment [17], 99.5 µM (inactive); in experiment [18] it was > 100 µM (inactive). Also, the GI50 in experiment [19] and in experiment [20] was > 100 µM (inactive) throughout.
For the compound `Nc1ccn(C2CCC(CO)O2)c(=O)n1` (stereo not given), the GI50 is > 100 µM (inactive) in experiment [1]; 785 µM (inactive) in experiment [2]; > 1000 µM (inactive) in [3]; > 100 µM (inactive) in [4]; 698 µM (inactive) in [5]; > 1000 µM (inactive) in experiment [6]. Further, the GI50 in experiment [7] was > 1000 µM (inactive); in experiment [8] it was 99.8 µM (inactive); in experiment [9] it was > 1000 µM (inactive); in [10], > 100 µM (inactive); in [11], 159 µM (inactive); in [12], > 100 µM (inactive). For the same compound, the GI50 is > 62.8 µM (inactive) in [13]; > 100 µM (inactive) in [14]; > 100 µM (inactive) in experiment [15]; > 100 µM (inactive) in experiment [16]; > 100 µM (inactive) in [17]; > 94.8 µM (inactive) in experiment [18]. Further, the GI50 in [19] and in experiment [20] was > 100 µM (inactive) each time.
For `CCC/N=C(/NC(=O)c1ccc(Cl)cc1)SC`, the GI50 is > 100 µM (inactive) in [1]; 39.8 µM (inactive) in experiment [2]; 25.5 µM (inactive) in experiment [3]; > 100 µM (inactive) in experiment [4]; 58.7 µM (inactive) in [5]; 12.1 µM (inactive) in experiment [6]. The GI50 in [7] was > 100 µM (inactive); in experiment [8], 75.9 µM (inactive); in experiment [9], > 100 µM (inactive); in [10], 46.3 µM (inactive); in experiment [11] it was > 100 µM (inactive); in experiment [12] it was > 100 µM (inactive). Further, the GI50 in experiment [13] was 88.9 µM (inactive); in experiment [14], > 100 µM (inactive); in experiment [15], > 100 µM (inactive); in [16], > 100 µM (inactive); in experiment [17] it was 11.4 µM (inactive); in experiment [18], > 100 µM (inactive). Besides, the GI50 in [19] was > 100 µM (inactive); in experiment [20], 74.5 µM (inactive).
For `CN(C)CC1CCC/C(=C\c2ccc(OC(=O)/C=C/c3ccc(Cl)cc3)cc2)C1=O` (stereo not given), the GI50 is 8.49 µM (inactive) in experiment [1]; 2.43 µM (inactive) in [2]; 0.217 µM (active) in experiment [3]; 2.62 µM (inactive) in experiment [4]; 1.07 µM (active) in experiment [5]; 4.92 µM (inactive) in experiment [6]. For the same compound, the GI50 is 6.1 µM (inactive) in [7]; 1.08 µM (active) in experiment [8]; 5.21 µM (inactive) in [9]; 6.65 µM (inactive) in [10]; 7.43 µM (inactive) in experiment [11]; 1.32 µM (inactive) in [12]. The GI50 in [13] is 4.09 µM (inactive); in experiment [14], 2.57 µM (inactive); in experiment [15], 6.14 µM (inactive); in experiment [16] it was 3.92 µM (inactive); in experiment [17] it was 8.93 µM (inactive); in experiment [18], 1.69 µM (inactive). Besides, the GI50 in experiment [19] is 3.13 µM (inactive); in experiment [20] it was 11.5 µM (inactive).
`CC(=O)NCC1OC2COC(c3ccccc3)OC2C(NC(=O)c2ccccc2)C1OC(=O)c1ccccc1` (stereo not given): the GI50 in experiment [1] was > 100 µM (inactive); in experiment [2], > 100 µM (inactive); in experiment [3] it was > 100 µM (inactive); in [4] it was > 100 µM (inactive); in [5] it was 85.5 µM (inactive); in [6], > 100 µM (inactive). The GI50 is > 100 µM (inactive) in experiment [7]; > 100 µM (inactive) in [8]; > 100 µM (inactive) in experiment [9]; > 100 µM (inactive) in experiment [10]; > 100 µM (inactive) in [11]; 35 µM (inactive) in experiment [12]. Further, the GI50 in [13] is > 100 µM (inactive); in experiment [14], > 100 µM (inactive); in experiment [15], > 100 µM (inactive); in experiment [16], 60.3 µM (inactive); in experiment [17], > 100 µM (inactive); in experiment [18] it was > 100 µM (inactive). Besides, the GI50 in [19] and in experiment [20] was > 100 µM (inactive) each time.
Regarding `N[C@H]1c2c(Br)sc(Br)c2C(=O)[C@H]1O`, the GI50 is 24.9 µM (inactive) in experiment [1]; 24.7 µM (inactive) in experiment [2]; 6.3 µM (inactive) in experiment [3]; 0.214 µM (active) in experiment [4]; 2.85 µM (inactive) in experiment [5]; 31 µM (inactive) in experiment [6]. In addition, the GI50 was 8.69 µM (inactive) in [7]; 13.3 µM (inactive) in experiment [8]; 18.7 µM (inactive) in experiment [9]; 3.64 µM (inactive) in [10]; 16 µM (inactive) in experiment [11]; 4.95 µM (inactive) in experiment [12]. The GI50 in [13] is 24.9 µM (inactive); in experiment [14] it was 18.5 µM (inactive); in experiment [15], 10.3 µM (inactive); in [16], 1.56 µM (inactive); in [17], 29.2 µM (inactive); in experiment [18], 6.41 µM (inactive). Moreover, the GI50 in [19] was 14.4 µM (inactive); in experiment [20], 14.2 µM (inactive).
`CCSc1c(C)c2c(n(Cc3ccc(OC)cc3)c1=O)Cc1ccccc1C2`: the GI50 in [1] is 21.9 µM (inactive); in experiment [2], 10.3 µM (inactive); in experiment [3], 22.9 µM (inactive); in experiment [4], 44 µM (inactive); in experiment [5], 6.17 µM (inactive); in experiment [6], 24.5 µM (inactive). For the same compound, the GI50 in experiment [7] was 10.9 µM (inactive); in [8] it was 24.7 µM (inactive); in [9], 20.7 µM (inactive); in experiment [10], 20 µM (inactive); in experiment [11], 5.08 µM (inactive); in experiment [12], 32.1 µM (inactive). Besides, the GI50 in experiment [13] was 11.8 µM (inactive); in [14] it was 19.2 µM (inactive); in experiment [15], 92.7 µM (inactive); in [16], 12.8 µM (inactive); in experiment [17], 21.9 µM (inactive); in [18], 15.5 µM (inactive). Moreover, the GI50 is 15 µM (inactive) in [19] and 13.3 µM (inactive) in [20].

The values are drawn from ChEMBL document CHEMBL1201862, “PubChem BioAssay data set” (2004).
